In US20110223666A1, “CYTOPLASM EXPOSURE ADDITIVE AND METHOD FOR EXPOSING PARTICLES DELIVERED INTO CELL TO CYTOPLASM FROM ENDOCYTIC VESICLES IN INTACT CELL” (MEDISCOV INC., priority 2008, published 2011):

tested on: HeLa cells; assay: Exposure of dasatinib-modified particles from endocytic vesicles to cytoplasm, seen as co-localization with EGFP-ABL1 fluorescence; format: cell-based; details: HeLa cells transfected with EGFP-ABL1 with dasatinib-particles; cells fixed by the additive, not observed in a living state
Source text: In addition, ABL1 (GenBank Acc. No. NM—198291) which binds to dasatinib was used for another linker constituting a mediator.
EGFP-ABL1 expression vector was produced by a known method (Sambrook & Russell, 2001, Molecular Cloning, Cold Spring Harbor Laboratory Press). After HeLa cells were subcultured to 6,000 cells/well on a 96-well plate, the expression vector DNA was transfected into a cell as mentioned in Example 1.
The particles modified with dasatinib were introduced into the cell transfected with DNA in the following. The cultured HeLa cells were treated with the modified particles according to the following processes:
1) Streptavidin-magnetic particles were mixed with dasatinib-biotin and the mixture was allowed to be reacted with each other. As a result, the particles modified with dasatinib were prepared;
In this embodiment, Olympus fluorescence microscope, FV1000, equipped with the object lens of Uplan Apo 40×/0.85 was used to obtain transmitted images and fluorescent images in the cells.

Molecule | function as a cytoplasm exposure additive (exposure of particles to cytoplasm from endocytic vesicles)
CCO [ethanol] | exposed the particles to cytoplasm from endocytic vesicles effectively
CO [methanol] | exposed the particles to cytoplasm from endocytic vesicles effectively
paraformaldehyde | exposed the particles to cytoplasm from endocytic vesicles effectively
